Data reported in PubChem BioAssay (NCI).
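Step 1: Grow cells in 96-well plates. Step 2: Expose to compound for 48 hours at 5 concentrations. Step 3: Interpolate endpoints linearly; if unreached, use highest concentration. Definition used: TGI = concentration required for complete inhibition of growth.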

Tests used:
Assay in all cases: growth of human tumour cells (NCI), 48 h
RPMI-8226 leukemia = system: RPMI-8226 leukemia
PC-3 prostate = system: PC-3 prostate
A498 renal = system: A498 renal
HOP-18 NSCLC = system: HOP-18 NSCLC
HOP-62 NSCLC = system: HOP-62 NSCLC
MALME-3M melanoma = system: MALME-3M melanoma
MOLT-4 leukemia = system: MOLT-4 leukemia
DMS 114 small cell lung = system: DMS 114 small cell lung
M19-MEL melanoma = system: M19-MEL melanoma
U251 CNS = system: U251 CNS
OVCAR-3 ovarian = system: OVCAR-3 ovarian
HOP-92 NSCLC = system: HOP-92 NSCLC
SN12C renal = system: SN12C renal
SK-MEL-2 melanoma = system: SK-MEL-2 melanoma
MCF7 breast = system: MCF7 breast
COLO 205 colon = system: COLO 205 colon
LOX IMVI melanoma = system: LOX IMVI melanoma
SF-268 CNS = system: SF-268 CNS
DMS 273 small cell lung = system: DMS 273 small cell lung
EKVX NSCLC = system: EKVX NSCLC
K-562 leukemia = system: K-562 leukemia
OVCAR-4 ovarian = system: OVCAR-4 ovarian
RXF 393 renal = system: RXF 393 renal
SNB-75 CNS = system: SNB-75 CNS
CCRF-CEM leukemia = system: CCRF-CEM leukemia
SNB-78 CNS = system: SNB-78 CNS
T-47D breast = system: T-47D breast
IGROV1 ovarian = system: IGROV1 ovarian
HT29 colon = system: HT29 colon
KM20L2 colon = system: KM20L2 colon
HCC-2998 colon = system: HCC-2998 colon
HCT-116 colon = system: HCT-116 colon
UACC-62 melanoma = system: UACC-62 melanoma
NCI-H226 lung = system: NCI-H226 lung
SK-MEL-28 melanoma = system: SK-MEL-28 melanoma
786-0 renal = system: 786-0 renal
BT-549 breast = system: BT-549 breast
HS 578T breast = system: HS 578T breast
MDA-MB-435 = system: MDA-MB-435
SF-295 CNS = system: SF-295 CNS
SW-620 colon = system: SW-620 colon
KM12 colon = system: KM12 colon
A549 NSCLC = system: A549 NSCLC
UACC-257 melanoma = system: UACC-257 melanoma
HCT-15 colon = system: HCT-15 colon
SK-MEL-5 melanoma = system: SK-MEL-5 melanoma
NCI-H522 lung = system: NCI-H522 lung
M14 melanoma = system: M14 melanoma
NCI-H23 lung = system: NCI-H23 lung
UO-31 renal = system: UO-31 renal
SR leukemia = system: SR leukemia
MDA-MB-231 breast = system: MDA-MB-231 breast
OVCAR-5 ovarian = system: OVCAR-5 ovarian
NCI/ADR-RES ovarian = system: NCI/ADR-RES ovarian
TK-10 renal = system: TK-10 renal
LXFL 529 NSCLC = system: LXFL 529 NSCLC
HL-60(TB) leukemia = system: HL-60(TB) leukemia
MDA-N = system: MDA-N
NCI-H460 lung = system: NCI-H460 lung
DU-145 prostate = system: DU-145 prostate
OVCAR-8 ovarian = system: OVCAR-8 ovarian
SK-OV-3 ovarian = system: SK-OV-3 ovarian
ACHN renal = system: ACHN renal
SNB-19 CNS = system: SNB-19 CNS
XF 498 CNS = system: XF 498 CNS
DLD-1 colon = system: DLD-1 colon
CAKI-1 renal = system: CAKI-1 renal
SF-539 CNS = system: SF-539 CNS

## COc1ccc(NC(=O)CSc2nnc(-c3ccc(N=Cc4ccc(Cl)cc4)cc3)o2)cc1
RPMI-8226 leukemia
  TGI: > 80.7 µM
PC-3 prostate
  TGI: > 100 µM
A498 renal
  TGI: > 100 µM
HOP-18 NSCLC
  TGI: 68.1 µM
HOP-62 NSCLC
  TGI: > 88.6 µM
MALME-3M melanoma
  TGI: > 100 µM
MOLT-4 leukemia
  TGI: > 70.2 µM
DMS 114 small cell lung
  TGI: 80.1 µM
M19-MEL melanoma
  TGI: 68.1 µM
U251 CNS
  TGI: > 100 µM
OVCAR-3 ovarian
  TGI: 73.2 µM
HOP-92 NSCLC
  TGI: 71.4 µM
SN12C renal
  TGI: 56.8 µM
SK-MEL-2 melanoma
  TGI: 45.8 µM
MCF7 breast
  TGI: > 100 µM
COLO 205 colon
  TGI: 44.9 µM
LOX IMVI melanoma
  TGI: 31.9 µM
SF-268 CNS
  TGI: > 64.7 µM
DMS 273 small cell lung
  TGI: 79.6 µM
EKVX NSCLC
  TGI: > 100 µM
K-562 leukemia
  TGI: > 100 µM
OVCAR-4 ovarian
  TGI: > 100 µM
RXF 393 renal
  TGI: > 100 µM
SNB-75 CNS
  TGI: > 86.7 µM
CCRF-CEM leukemia
  TGI: > 82.7 µM
SNB-78 CNS
  TGI: 77.3 µM
T-47D breast
  TGI: > 100 µM
IGROV1 ovarian
  TGI: > 100 µM
HT29 colon
  TGI: > 100 µM
KM20L2 colon
  TGI: > 100 µM
HCC-2998 colon
  TGI: > 100 µM
HCT-116 colon
  TGI: > 49.5 µM
UACC-62 melanoma
  TGI: > 100 µM
NCI-H226 lung
  TGI: > 76.3 µM
SK-MEL-28 melanoma
  TGI: > 100 µM
786-0 renal
  TGI: > 100 µM
BT-549 breast
  TGI: > 100 µM
HS 578T breast
  TGI: > 100 µM
MDA-MB-435
  TGI: > 100 µM
SF-295 CNS
  TGI: > 100 µM
SW-620 colon
  TGI: > 100 µM
KM12 colon
  TGI: > 80.9 µM
A549 NSCLC
  TGI: > 100 µM
UACC-257 melanoma
  TGI: > 96.7 µM
HCT-15 colon
  TGI: 29.1 µM
SK-MEL-5 melanoma
  TGI: > 100 µM
NCI-H522 lung
  TGI: 96.6 µM
M14 melanoma
  TGI: > 96.3 µM
NCI-H23 lung
  TGI: > 93.5 µM
UO-31 renal
  TGI: > 100 µM
SR leukemia
  TGI: 61.2 µM
MDA-MB-231 breast
  TGI: > 100 µM
OVCAR-5 ovarian
  TGI: > 100 µM
NCI/ADR-RES ovarian
  TGI: > 100 µM
TK-10 renal
  TGI: > 100 µM
LXFL 529 NSCLC
  TGI: > 100 µM
HL-60(TB) leukemia
  TGI: > 48.8 µM
MDA-N
  TGI: > 100 µM
NCI-H460 lung
  TGI: > 100 µM
DU-145 prostate
  TGI: > 100 µM
OVCAR-8 ovarian
  TGI: > 100 µM
SK-OV-3 ovarian
  TGI: > 100 µM
ACHN renal
  TGI: > 86.9 µM
SNB-19 CNS
  TGI: > 100 µM
XF 498 CNS
  TGI: 59.2 µM

## O=C1c2ccccc2C(=O)c2[nH]c(Cc3ccccc3F)nc21
RPMI-8226 leukemia
  TGI: > 100 µM
HOP-18 NSCLC
  TGI: > 100 µM
HOP-62 NSCLC
  TGI: > 100 µM
MALME-3M melanoma
  TGI: > 100 µM
MOLT-4 leukemia
  TGI: > 100 µM
DMS 114 small cell lung
  TGI: > 100 µM
DLD-1 colon
  TGI: 82.5 µM
U251 CNS
  TGI: > 100 µM
OVCAR-3 ovarian
  TGI: 39 µM
HOP-92 NSCLC
  TGI: > 100 µM
SN12C renal
  TGI: > 100 µM
SK-MEL-2 melanoma
  TGI: > 100 µM
COLO 205 colon
  TGI: > 100 µM
SF-268 CNS
  TGI: > 100 µM
DMS 273 small cell lung
  TGI: > 100 µM
EKVX NSCLC
  TGI: > 100 µM
K-562 leukemia
  TGI: > 100 µM
OVCAR-4 ovarian
  TGI: > 100 µM
RXF 393 renal
  TGI: 75.5 µM
CAKI-1 renal
  TGI: > 100 µM
SNB-75 CNS
  TGI: > 100 µM
CCRF-CEM leukemia
  TGI: > 100 µM
HT29 colon
  TGI: > 100 µM
KM20L2 colon
  TGI: > 100 µM
HCC-2998 colon
  TGI: > 100 µM
HCT-116 colon
  TGI: > 100 µM
UACC-62 melanoma
  TGI: > 100 µM
NCI-H226 lung
  TGI: > 100 µM
SK-MEL-28 melanoma
  TGI: > 100 µM
786-0 renal
  TGI: > 100 µM
SF-539 CNS
  TGI: 91.1 µM
SF-295 CNS
  TGI: > 100 µM
SW-620 colon
  TGI: > 100 µM
KM12 colon
  TGI: > 100 µM
A549 NSCLC
  TGI: > 100 µM
UACC-257 melanoma
  TGI: > 100 µM
HCT-15 colon
  TGI: > 100 µM
NCI-H522 lung
  TGI: 70.9 µM
M14 melanoma
  TGI: > 100 µM
NCI-H23 lung
  TGI: > 100 µM
UO-31 renal
  TGI: > 100 µM
SR leukemia
  TGI: > 100 µM
TK-10 renal
  TGI: 88.3 µM
LXFL 529 NSCLC
  TGI: > 100 µM
HL-60(TB) leukemia
  TGI: > 100 µM
NCI-H460 lung
  TGI: > 100 µM
OVCAR-8 ovarian
  TGI: > 100 µM
ACHN renal
  TGI: > 100 µM
SNB-19 CNS
  TGI: > 100 µM
XF 498 CNS
  TGI: > 100 µM
